Here are results for 23 compounds from PMC9261963, “Synthesis and Biological Evaluation of 5-Fluoro-2-Oxindole Derivatives as Potential α-Glucosidase Inhibitors” (Frontiers in Chemistry, 2022).

Like-named read-outs stand apart in the source and are kept apart here. Some results are limits rather than exact numbers.

The target in data set [1] is T1, α-glucosidase from Saccharomyces cerevisiae (EC 3.2.1.20) (Saccharomyces cerevisiae, UniProt P53341).
T1 construct: purchased Sigma-Aldrich
The data set is described as follows: biochemical. Particulars: for IC50 / inhibition at 100 µM / Inhibition rate at a concentration of 100 μM (%): p-NPG substrate; for IC50: pH 6.8, 37°C; for inhibition at 100 µM: read-out: Inhibition rate at a concentration of 100 μM (%), 100 μM compound; for Inhibition rate at a concentration of 100 μM (%): 100 μM compound; for Inhibitory activity, folds higher than acarbose: IC50 compared with acarbose.
Protocol: Then, the inhibitory activity of compounds (3a ∼ 3v) on α-glucosidase from S. cerevisiae was investigated using p-NPG as the substrate. First, the inhibitory activities of compounds (3a ∼ 3v) were screened at a concentration of 100 μM.
The α-glucosidase inhibition of synthetic compounds was performed as previously reported methods with minor modification ([Deng et al., 2022]) which is as follows: briefly, 130 μl of phosphate buffer (10 mM, pH 6.8), 10 μl of α-glucosidase (1 U/ml), and 10 μl of test compound solution were added into the wells of a 96-well plate, followed by incubation for 10 min at 37°C. Then, 50 μl of p-NPG (1 mM) was added, and the plate was further incubated for 30 min at 37°C. Finally, the absorbance of each well was recorded at 405 nm using a microplate reader. […] The inhibition of the test compound on α-glucosidase was calculated as follows: inhibition ratio (%) = [(A− B)/A] × 100, where A is the absorbance of blank and B is the absorbance of the test compound. Each concentration was experimented four times in parallel. Half inhibitory concentration (IC50) was obtained from the fitting curve of inhibition ratio vs. test compound with different concentrations.

The target in data set [2] is T1, α-glucosidase from Saccharomyces cerevisiae (EC 3.2.1.20). Put plainly: Kinetics mechanism analysis (enzyme activity vs enzyme concentration; Lineweaver–Burk plots). Type of data set: biochemical. Particulars: for Inhibition mechanism (inhibition type): Lineweaver–Burk plot analysis; for Ki: inhibition constant from slope vs inhibitor concentration (free enzyme); for K IS: inhibition constant from vertical intercept vs inhibitor concentration (enzyme–substrate complex); for Reversibility of inhibition: plots of enzyme activity vs enzyme concentration. As for the experimental part:
In order to obtain the inhibition kinetics type of compounds 3d, 3f, and 3i, the Lineweaver–Burk plot analysis method was carried out with different concentrations of test compounds and substrates.
Compounds 3d, 3f, and 3i with much better α-glucosidase inhibitory activity were selected for kinetic analysis. The experiments were performed to investigate the kinetics mechanism of compounds 3d, 3f, and 3i by the previously reported method ([Xu et al., 2019]). To determine the inhibition mechanism, the final concentrations for 3d were 0, 40, 50, 60 μM, for 3f were 0, 40, 50, 60 μM, and for 3i were 0, 30, 40, 50 μM, the final substrate p-NPG concentration was 0.25 mM, and the final concentrations for α-glucosidase were 3.75 × 10^–2, 5.00 × 10^–2, 6.25 × 10^–2, and 7.50 × 10^–2 U/ml. Then, the inhibition rates were measured by the aforementioned method.
To analyze the inhibition type, the final concentrations for 3d were 0, 40, 50, and 60 μM, for 3f were 0, 40, 50, and 60 μM, and for 3i were 0, 30, 40, and 50 μM, the final α-glucosidase concentration was 5.00 × 10^–2 U/ml, and final concentrations for substrate p-NPG concentration were 0.25, 0.50, 0.75, and 1.00 mM. The inhibition rates were obtained by the aforementioned method. The inhibition type on α-glucosidase was analyzed by using Lineweaver–Burk plots of the inverse of velocities (1/v) vs. the inverse of substrate concentration 1/[S]. The K I and K IS were obtained from the slope and the vertical intercept vs. the inhibitor concentration, respectively.
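Wherever IC50 (μM) is given: Absorbance-based enzyme read-out, with each concentration tested in four parallel replicates.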
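Wherever IC50 is given: Absorbance-based enzyme read-out, with each concentration tested in four parallel replicates.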
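Wherever Inhibition rate at a concentration of 100 μM (%) is given: Absorbance-based enzyme read-out, with each concentration tested in four parallel replicates.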
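Wherever Inhibitory activity, folds higher than acarbose is given: Absorbance-based enzyme read-out, with each concentration tested in four parallel replicates.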

T1 sequence (P53341 whole entry): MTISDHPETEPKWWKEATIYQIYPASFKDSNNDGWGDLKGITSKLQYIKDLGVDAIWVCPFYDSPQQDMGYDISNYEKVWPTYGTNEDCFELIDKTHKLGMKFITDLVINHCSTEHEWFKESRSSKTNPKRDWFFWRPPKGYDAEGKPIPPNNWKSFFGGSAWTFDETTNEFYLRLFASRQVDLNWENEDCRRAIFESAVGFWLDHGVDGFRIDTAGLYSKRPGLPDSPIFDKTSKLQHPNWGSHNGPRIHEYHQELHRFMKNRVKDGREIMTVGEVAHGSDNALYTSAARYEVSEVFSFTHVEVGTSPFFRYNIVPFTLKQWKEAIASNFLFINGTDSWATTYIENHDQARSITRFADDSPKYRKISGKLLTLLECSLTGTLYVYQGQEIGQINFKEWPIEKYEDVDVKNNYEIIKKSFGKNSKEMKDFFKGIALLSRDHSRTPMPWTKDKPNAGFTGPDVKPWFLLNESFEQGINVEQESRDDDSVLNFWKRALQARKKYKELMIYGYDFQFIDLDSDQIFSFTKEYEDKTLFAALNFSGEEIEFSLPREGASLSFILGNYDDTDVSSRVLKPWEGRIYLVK

The term IC50 denotes the concentration that inhibits the measured activity by half. As to `O=C1Cc2cc(F)ccc2N1` [5-Fluoro-2-oxindole, 5-fluoro-2-oxindole], the half-maximal inhibitory concentration (IC50) in data set [1] (read-out: IC50) was determined as 7510 µM.

Usually melting point stands for the temperature, or range, at which the solid turns liquid. In turn, `O=C1Nc2ccc(F)cc2/C1=C/c1ccccc1F` [Compound 3a, (Z)-5-Fluoro-3-(2-Fluorobenzylidene) Indolin-2-One] registered a melting point of 228.3 to 230.2 °C. Moreover, in data set [1] (IC50 (μM)), the half-maximal inhibitory concentration (IC50) is > 100 µM. Further, in data set [1], the inhibition at 100 µM came out at 7.29 ± 0.16%.

`O=C1Nc2ccc(F)cc2/C1=C/c1cccc(F)c1` [Compound 3b, (Z)-5-Fluoro-3-(3-Fluorobenzylidene) Indolin-2-One] returned a melting point of 191.4 to 192.2 °C. Moreover, the IC50 in data set [1] (IC50 (μM)) was > 100 µM. In addition, the inhibition at 100 µM in data set [1] was 5.19 ± 0.79%.

As to `O=C1Nc2ccc(F)cc2/C1=C/c1ccc(F)cc1` [Compound 3c, (Z)-5-Fluoro-3-(4-Fluorobenzylidene) Indolin-2-One], the melting point lay in the range of 217 to 219.6 °C. Also, in data set [1] (IC50 (μM)), the IC50 is > 100 µM. In addition, in data set [1], the inhibition at 100 µM was 9.55 ± 0.13%.

What is called Ki is a dissociation constant, usually derived from enzyme kinetics or from competition with a known ligand. `O=C1Nc2ccc(F)cc2/C1=C/c1ccccc1Cl` [Compound 3d, (Z)-3-(2-Chlorobenzylidene)-5-Fluoroindolin-2-One] had a melting point of 219.7 to 221.9 °C. Moreover, in data set [1], the “Inhibition rate at a concentration of 100 μM (%)” value (from here on “Inhibition rate … (%)”) is listed as 89.19 ± 0.14%; the “Inhibitory activity, folds higher than acarbose” value is reported as 10 ∼ 15 folds; the inhibition at 100 µM is ~90%. Also, the IC50 in data set [1] (IC50 (μM)) was 49.9 ± 1.16 µM. Further, in data set [2], the “Inhibition mechanism (inhibition type)” value was “Mixed type”, the Ki was 15 µM, the “K IS” value came to 453.85 µM and the Reversibility of inhibition entry is “reversible”.

Consider `O=C1Nc2ccc(F)cc2/C1=C/c1cccc(Cl)c1` [Compound 3e, (Z)-3-(3-Chlorobenzylidene)-5-Fluoroindolin-2-One], for which the melting point was in the range of 237.4 to 238.9 °C. The half-inhibitory concentration (IC50) in data set [1] (IC50 (μM)) is > 100 µM. Moreover, in data set [1], the inhibition at 100 µM stood at 21.6 ± 0.78%.

For the compound `O=C1Nc2ccc(F)cc2/C1=C/c1ccc(Cl)cc1` [Compound 3f, (Z)-3-(4-Chlorobenzylidene)-5-Fluoroindolin-2-One], the melting point was 200.6 to 202.5 °C. Also, in data set [1], the “Inhibition rate … (%)” value amounted to 90.52 ± 0.27%; the “Inhibitory activity, folds higher than acarbose” value is 10 ∼ 15 folds; the inhibition at 100 µM is ~90%. This compound returned a half-inhibitory concentration (IC50) in data set [1] (IC50 (μM)) of 35.8 ± 0.98 µM. In data set [2], the “Inhibition mechanism (inhibition type)” value was “Mixed type”, the inhibition constant Ki was determined as 33.8 µM, the “K IS” value was found to be 58.31 µM and the Reversibility of inhibition result is given as “reversible”.

In turn, `O=C1Nc2ccc(F)cc2/C1=C/c1ccccc1Br` [Compound 3g, (Z)-3-(2-Bromobenzylidene)-5-Fluoroindolin-2-One] registered a melting point of 194.9 to 197.1 °C. Further, in data set [1], the “Inhibition rate … (%)” value worked out at 53.71 ± 0.47% and the inhibition at 100 µM was ~50%. Also, it took 95.68 ± 0.28 µM to reach half-maximal inhibition in data set [1] (IC50 (μM)) (IC50).

As to `O=C1Nc2ccc(F)cc2/C1=C/c1cccc(Br)c1` [Compound 3h, (Z)-3-(3-Bromobenzylidene)-5-Fluoroindolin-2-One], the melting point lay within 222.6 to 223.8 °C. The IC50 in data set [1] (IC50 (μM)) was > 100 µM. In addition, the inhibition at 100 µM in data set [1] came out at 31.61 ± 0.21%.

With `O=C1Nc2ccc(F)cc2/C1=C/c1ccc(Br)cc1` [Compound 3i, (Z)-3-(4-Bromobenzylidene)-5-Fluoroindolin-2-One], the melting point was 249.3 to 251.6 °C. In addition, in data set [1], the “Inhibition rate … (%)” value is on record as 92.86 ± 0.32%; the “Inhibitory activity, folds higher than acarbose” value was 10 ∼ 15 folds; the inhibition at 100 µM was ~90%. Moreover, the concentration for half-maximal inhibition (IC50) in data set [1] (IC50 (μM)) amounted to 56.87 ± 0.42 µM. In data set [2], the “Inhibition mechanism (inhibition type)” value was “Mixed type”, the inhibitory constant (Ki) was 22.7 µM, the “K IS” value worked out at 24.74 µM and the Reversibility of inhibition entry is recorded as “reversible”.

For `COc1ccccc1/C=C1\C(=O)Nc2ccc(F)cc21` [Compound 3j, (Z)-5-Fluoro-3-(2-Methoxybenzylidene) Indolin-2-One], the melting point fell in the range of 227.1 to 227.8 °C. Also, in data set [1] (IC50 (μM)), the 50% inhibitory concentration (IC50) is > 100 µM. The inhibition at 100 µM in data set [1] turned out to be 19.2 ± 1.21%.

The compound `COc1cccc(/C=C2\C(=O)Nc3ccc(F)cc32)c1` [Compound 3k, (Z)-5-Fluoro-3-(3-Methoxybenzylidene) Indolin-2-One] came in with a melting point of 200.1 to 202.1 °C. For the same compound, the IC50 in data set [1] (IC50 (μM)) is > 100 µM. Moreover, in data set [1], the inhibition at 100 µM amounted to 27.2 ± 1.47%.

`COc1ccc(/C=C2\C(=O)Nc3ccc(F)cc32)cc1` [Compound 3l, (Z)-5-Fluoro-3-(4-Methoxybenzylidene) Indolin-2-One] displayed a melting point of 358.8 to 359.9 °C. Besides, the IC50 in data set [1] (IC50 (μM)) was > 100 µM. The inhibition at 100 µM in data set [1] came out at 15.7 ± 0.71%.

`O=C1Nc2ccc(F)cc2/C1=C/c1ccccc1C(F)(F)F` [Compound 3m, (Z)-5-Fluoro-3-[2-(Trifluoromethyl) Benzylidene) Indolin-2-One] returned a melting point of 235.2 to 236.4 °C. Also, the IC50 in data set [1] (read-out: IC50) is > 100 µM. The inhibition at 100 µM in data set [1] turned out to be 8.43 ± 1.14%.

Regarding `O=C1Nc2ccc(F)cc2/C1=C/c1cccc(C(F)(F)F)c1` [Compound 3n, (Z)-5-Fluoro-3-[3-(Trifluoromethyl) Benzylidene] Indolin-2-One], the melting point lay within 199.7 to 200.5 °C. Further, in data set [1], the “Inhibition rate … (%)” value is 52.79 ± 1.68% and the inhibition at 100 µM was ~50%. The half-maximal inhibitory concentration (IC50) in data set [1] (IC50 (μM)) turned out to be 96.78 ± 0.72 µM.

Compound `O=C1Nc2ccc(F)cc2/C1=C/c1ccc(F)cc1F` [Compound 3o, (Z)-3-(2,4-Difluorobenzylidene)-5-Fluoroindolin-2-One] gave a melting point of 221.1 to 224.3 °C. Moreover, the half-inhibitory concentration (IC50) in data set [1] (IC50 (μM)) was > 100 µM. In addition, the inhibition at 100 µM in data set [1] worked out at 18.8 ± 1.15%.

`O=C1Nc2ccc(F)cc2/C1=C/c1ccccc1` [Compound 3q, (Z)-3-Benzylidene-5-Fluoroindolin-2-One]: in data set [1] (IC50 (μM)), the concentration for half-maximal inhibition (IC50) was > 100 µM. Moreover, the inhibition at 100 µM in data set [1] came to 10 ± 1.75%.

Take `CSc1ccc(/C=C2\C(=O)Nc3ccc(F)cc32)cc1` [Compound 3r, (Z)-5-Fluoro-3-[4-(Methylthio) Benzylidene] Indolin-2-One]: the melting point was 246.1 to 247.1 °C. Besides, in data set [1], the “Inhibition rate … (%)” value is 60.8 ± 1.27% and the inhibition at 100 µM was ~50%. The compound also displayed an IC50 in data set [1] (IC50 (μM)) of 90.6 ± 1.87 µM.

`O=C1Nc2ccc(F)cc2/C1=C/c1ccco1` [Compound 3s, (Z)-5-Fluoro-3-(Furan-2-ylmethylene) Indolin-2-One]: the melting point fell in the range of 237.9 to 238.8 °C. Moreover, the IC50 in data set [1] (IC50 (μM)) was > 100 µM. The inhibition at 100 µM in data set [1] is 4.49 ± 1.88%.

For `O=C1Nc2ccc(F)cc2/C1=C/c1cccs1` [Compound 3t, (Z)-5-Fluoro-3-(Thiophen-2-ylmethylene) Indolin-2-One], in data set [1] (IC50 (μM)), the IC50 was > 100 µM. For the same compound, the inhibition at 100 µM in data set [1] worked out at 5.67 ± 1.11%.

For `O=C1Nc2ccc(F)cc2/C1=C/c1ccc[nH]1` [Compound 3u, (Z)-3-[(1H-Pyrrol-2-yl)methylene]-5-Fluoroindolin-2-One], the IC50 in data set [1] (IC50 (μM)) is > 100 µM. Moreover, the inhibition at 100 µM in data set [1] worked out at 3.77 ± 1.35%.

The compound `O=C1Nc2ccc(F)cc2/C1=C/c1ccccn1` [Compound 3v, (Z)-5-Fluoro-3-(Pyridin-2-ylmethylene) Indolin-2-One] showed a melting point of 248.5 to 251.2 °C. The half-inhibitory concentration (IC50) in data set [1] (IC50 (μM)) was > 100 µM. Moreover, in data set [1], the inhibition at 100 µM came out at 3.99 ± 1.28%.

As for “(Z)-3-(3,4-Difluorobenzylidene)-5-Fluoroindolin-2-One [Compound 3p]”, in data set [1], the “Inhibition rate … (%)” value came out at 55.89 ± 1.71%. Further, in data set [1] (read-out: IC50), the half-inhibitory concentration (IC50) was found to be 92.62 ± 0.45 µM.
